Assay results as given in patent publication US20260041653A1, “AN HDAC INHIBITOR FOR TREATING CANCER WITH A MODIFIED STK11 ACTIVITY OR EXPRESSION” (Tango Therapeutics, Inc., priority 2022, published 2026).

Key:
acetyl-histone H2B = test: PK/PD study, acetyl-histone H2B in PBMC by flow cytometry; format: in vivo, C57BL/6 mice; details: 300 mg/kg QD, 2 days; 24 hours after last dose; vs vehicle control
Protocol: In a separate PK/PD study, MC38 tumor-bearing female C57BL/6 mice (12/group) were assigned to treatment groups with similar mean tumor volumes of approximately 430 mm^3 and treated with vehicle (5% N,N-dimethylacetamide [DMA]+30% polyethylene glycol [PEG] 400+65% of 30% 2-hydroxypropyl-beta-cyclodextrin [HP-β-CD] in water) or Compound I at 30, 100, and 300 mg/kg once daily (QD) for 2 days. Plasma samples were collected at 1, 2, 8 and 24 hours after last dose and analyzed for Compound I concentrations. Peripheral blood mononuclear cells (PBMC) and tumor samples were harvested at 2, 8, and 24 hours after last dose. The PBMC samples were processed for determination of mean florescent level of acetyl-histone H2B by flow cytometry. Tumor samples were processed for determination of protein levels of acetyl-histone H3 by Western blot.

CYP3A4 = CYP3A4 (Homo sapiens, UniProt P08684); test: CYP3A4 (Table 5); format: in vitro ADME; details: test not described
Sequence of CYP3A4 (P08684 whole entry): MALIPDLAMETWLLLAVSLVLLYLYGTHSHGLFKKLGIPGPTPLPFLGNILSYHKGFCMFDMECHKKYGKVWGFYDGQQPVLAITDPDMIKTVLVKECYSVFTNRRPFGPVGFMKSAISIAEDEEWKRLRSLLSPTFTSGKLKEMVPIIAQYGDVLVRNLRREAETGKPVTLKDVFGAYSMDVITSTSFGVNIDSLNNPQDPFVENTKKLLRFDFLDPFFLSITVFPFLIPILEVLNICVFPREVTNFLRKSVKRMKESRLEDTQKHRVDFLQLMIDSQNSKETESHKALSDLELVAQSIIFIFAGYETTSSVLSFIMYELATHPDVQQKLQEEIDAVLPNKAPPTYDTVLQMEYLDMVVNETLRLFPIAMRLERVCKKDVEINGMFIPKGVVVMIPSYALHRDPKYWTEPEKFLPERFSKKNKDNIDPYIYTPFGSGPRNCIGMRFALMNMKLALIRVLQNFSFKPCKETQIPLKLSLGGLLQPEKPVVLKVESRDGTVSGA

[1] = Pharmacokinetics in cynomolgus monkeys; format: in vivo; details: cynomolgus monkey, plasma
Protocol: The PK of Compound I in male cynomolgus monkeys was determined in plasma following single IV bolus and PO administration to non-naïve male cynomolgus s monkeys The vehicle used for IV was 20% wt/vol HPβCD, 1% vol/vol DMSO in saline and for PO was in 0.5% MC (suspension). Plasma samples were collected from 3 animals/group at 0.083, 0.25, 0.5, 1, 3, 6, 9, 12, 24, and 48 hours after dosing.

H3K9Ac = H3K9Ac in MC38 tumor tissue by Western blot; format: in vivo, mouse; details: 3, 10, 30 mg/kg for 7 days; tissue 8 hours post last dose; normalized to total histone H3
Protocol: Formation and accumulation of acetylated histone 3 lysine 9 (H3K9Ac) in MC38 tumor tissue from mouse after treatment with Compound I was determined by Western blot. Briefly, female C57BL/6 mice with MC38 tumors were treated with Compound I for 7 days at the indicated dose (3 mg/kg, 10 mg/kg, and 30 mg/kg). Tissue was collected 8 hours post last dose and the H3K9Ac accumulation was quantified by Western blot in (FIG. 14A) and normalized to total histone H3 (FIG. 14B).

STK11-null 3LL tumor = test: Anti-tumor efficacy in PD-1 resistant STK11-null 3LL model; format: in vivo; details: Compound I 75 mg/kg, Anti-PD1 10 mg/kg
Protocol: An in vivo anti-tumor efficacy of double combination treatment of Anti-PD1 and Compound I in a PD-1 resistant STK11-null 3LL model was performed. The parental (non STK11KO) 3LL line is relatively resistant to anti-PD1 treatment.
The animals (8/group) were divided into 4 groups: Group I was treated with a control antibody Anti-IgG2, group 2 was treated with anti-PD1 antibody, group 3 was treated with Compound I 75 mg/kg, and group 4 was treated with Compound 1 75 mg/kg and anti-PD1 antibody. Tumor volume and survival was monitored over the course of treatment. The tumor volume and survival was plotted by treatment group (FIG. 17A and FIG. 17B, respectively). The combination treatment with Compound I decreased the PD-1 resistance of this model caused by the SKT11 knockout to the baseline characteristic of the parental line as shown by Group 4's decreased tumor volume and increased survival over time compared to the other groups.

[2] = test system: CT26_STK11KO tumor (KRAS G12D); test: Anti-tumor efficacy in CT26_STK11KO colon carcinoma model; format: in vivo, mouse; details: for ORR % / TGI %: CT26 STK11KO
Protocol: In this example, the anti-tumor activity of a combination treatment of anti-PD1 antibody with Compound I was determined in vivo in STK11-deleted syngeneic mouse models.
Briefly, mice were inoculated with STK11-deleted CT26 (murine colorectal carcinoma cell line) tumor model in a manner similar to that described in Example 1. The tumor model was resistant to murine anti-PD1 antibody by knockout of the STK11. Mice were treated with Compound I orally once daily and with anti-PD1, anti-IgG2a control, or anti-PD1 control twice per week as indicated. Tumor volume and survival was monitored over the course of treatment and plotted by individual animal for tumor volume (FIG. 7A) and by group for survival (FIG. 7B).
(§1) An in vivo anti-tumor efficacy of combination treatment of Anti-PD1 and Compound I in a CT26 mouse model was evaluated. CT26 is a colon carcinoma cell line with an endogenous KRAS G12D mutation. The experiment was performed in the parental/wild type line and in a line engineered with an STK11 knock-out (CT26_STK11KO) resulting in an anti-PD1 resistant model with lower CD8+ T cell infiltration.
In each of the experiments, the animals (8/group) were divided into four groups. Group I was treated with a control antibody Anti-IgG2, group 2 was treated with Compound I 75 mg/kg, group 3 was treated with anti-PD1 antibody, and group 4 was treated with Compound I 75 mg/kg and anti-PD1 antibody. Tumor volume and survival was monitored over the course of treatment. For the CT26_STK11KO model, the tumor volume was plotted by individual animal (FIG. 15A) and by treatment group (FIG. 15B). Survival was plotted by treatment group (FIG. 15C).
as §1, with “anti-CTLA4” for “Anti-PD1”, “anti-CTLA4-resistant model.” for “anti-PD1 resistant model with lower CD8+ T cell infiltration.”
An in vivo anti-tumor efficacy of double combination treatment of Anti-CTLA4 and Compound I in a CT26 syngeneic model was performed. CT26 is a colon carcinoma cell line. The experiment was also performed with an STK11-null CT26 model, this model is CTLA4 resistant.
There were 8 mice per group. Group I was treated with a control antibody Anti-IgG2, group 2 was treated with Compound I 75 mg/kg, group 3 was treated with anti-CTLA4 antibody, and group 4 was treated with Compound I 75 mg/kg and anti-CTLA4 antibody. Tumor volume was monitored over the course of treatment. The tumor volume was plotted by treatment group (FIG. 16A), and the individual animals were plotted for group 1 and group 4 (FIG. 16B), for the parental model. The tumor volume was plotted by treatment group (FIG. 16C), and the individual animals were plotted for group 1 and group 4 (FIG. 16D), for the STK11 knockout model.

[3] = Compound I 75 mg/kg QD alone, second of two values (two experiments, Examples 14 and 15)
[4] = Compound I 75 mg/kg QD, antibodies 10 mg/kg, for Compound I alone the first of two printed values

For `C[S@@](=N)(=O)c1ccc(C(=O)Nc2cc(-c3ccc(F)cc3)ccc2N)cc1` [Compound I, (R)—N-(4-amino-4′-fluoro-[1,1′-biphenyl]-3-yl)-4-(S-methylsulfonimidoyl)benzamide], the “maximal induction of histone acetylation in PBMC” value (acetyl-histone H2B) was 8 fold, the CYP3A4 (CYP3A4) was “No signal” and the bioavailability ([1]; po, male cynomolgus monkeys, suspension at 3 mg/kg, fed, read-out: PO bioavailability (% F)) was 83%. For the same molecule, the half-life ([1]; male) was 6.8 h, the clearance ([1]; male, intravenous, read-out: CL, p) was 9.4 mL/min/kg and the “H3K9Ac accumulation in MC38 tumor tissue” value (H3K9Ac) was “dose dependent accumulation of H3K9Ac”. The “Median TTE” value (STK11-null 3LL tumor) was 18 days, the ORR % [2, 3] was 38% and the TGI % [2, 3] was 70%. For the same molecule, the ORR % [2, 4] was 0%, the TGI % [2, 4] was 39% and the “resistance to immune checkpoint blockade driven by loss of STK11” value ([2]; tumor models for colon adenocarcinoma and colorectal carcinoma (Examples 1 and 5)) was “reverses resistance to immune checkpoint blockade”.
